Where no end group is shown, it is not given here.
Test system: female rats
Experiment: Subcutaneous administration to female rats: GH effects and anti-peptide antibody
Type: in vivo

**Q.** With “Ac-GTSDRVYEKLAGSKNFFWKTFTSS [P7, Acetyl-GTSDRVYEKLAGSKNFFWKTFTSS]” as the substance, how does the anti-peptide antibody induction read?
**A.** without inducing, nevertheless, anti-peptide antibody
